Earlier results in patent US11634466B2, “Musclin peptides and methods of use thereof” (UNIVERSITY OF IOWA RESEARCH FOUNDATION, priority 2016, dated 2023).

Key:
NPRA = molecular target: T1, NPRA (Homo sapiens, UniProt P16066); conditions: background statement; without activating the linked guanylyl cyclase; cited from earlier work
T1 sequence (P16066 33-1061): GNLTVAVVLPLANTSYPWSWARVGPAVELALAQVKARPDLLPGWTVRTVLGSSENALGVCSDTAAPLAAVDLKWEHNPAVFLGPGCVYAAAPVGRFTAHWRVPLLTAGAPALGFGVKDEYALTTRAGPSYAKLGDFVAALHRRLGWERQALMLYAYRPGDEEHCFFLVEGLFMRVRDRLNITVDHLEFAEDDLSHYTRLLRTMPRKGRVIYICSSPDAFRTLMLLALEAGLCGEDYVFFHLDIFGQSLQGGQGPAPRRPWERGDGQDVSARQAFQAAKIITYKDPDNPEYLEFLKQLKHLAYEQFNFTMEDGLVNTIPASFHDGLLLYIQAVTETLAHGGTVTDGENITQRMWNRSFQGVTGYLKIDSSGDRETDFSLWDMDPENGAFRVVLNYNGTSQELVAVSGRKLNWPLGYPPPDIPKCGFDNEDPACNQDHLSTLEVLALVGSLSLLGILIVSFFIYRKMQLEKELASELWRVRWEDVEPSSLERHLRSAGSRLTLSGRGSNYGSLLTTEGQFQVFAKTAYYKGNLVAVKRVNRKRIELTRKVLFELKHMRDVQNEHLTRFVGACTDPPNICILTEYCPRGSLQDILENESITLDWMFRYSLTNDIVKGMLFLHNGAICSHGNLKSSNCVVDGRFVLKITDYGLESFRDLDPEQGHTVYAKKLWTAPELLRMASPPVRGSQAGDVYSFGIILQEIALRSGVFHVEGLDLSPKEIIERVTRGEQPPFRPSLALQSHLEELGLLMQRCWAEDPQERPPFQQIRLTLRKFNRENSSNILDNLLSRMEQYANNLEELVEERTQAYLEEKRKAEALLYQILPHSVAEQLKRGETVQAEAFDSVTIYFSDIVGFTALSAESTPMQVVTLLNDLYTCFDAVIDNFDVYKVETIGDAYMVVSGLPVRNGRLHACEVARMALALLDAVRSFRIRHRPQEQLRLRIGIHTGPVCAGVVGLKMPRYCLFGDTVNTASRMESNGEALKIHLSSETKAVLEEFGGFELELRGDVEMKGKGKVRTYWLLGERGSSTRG

NPRB = molecular target: T2, NPRB (Homo sapiens, UniProt P20594); conditions: background statement; without activating the linked guanylyl cyclase; cited from earlier work
T2 sequence (P20594 23-1047): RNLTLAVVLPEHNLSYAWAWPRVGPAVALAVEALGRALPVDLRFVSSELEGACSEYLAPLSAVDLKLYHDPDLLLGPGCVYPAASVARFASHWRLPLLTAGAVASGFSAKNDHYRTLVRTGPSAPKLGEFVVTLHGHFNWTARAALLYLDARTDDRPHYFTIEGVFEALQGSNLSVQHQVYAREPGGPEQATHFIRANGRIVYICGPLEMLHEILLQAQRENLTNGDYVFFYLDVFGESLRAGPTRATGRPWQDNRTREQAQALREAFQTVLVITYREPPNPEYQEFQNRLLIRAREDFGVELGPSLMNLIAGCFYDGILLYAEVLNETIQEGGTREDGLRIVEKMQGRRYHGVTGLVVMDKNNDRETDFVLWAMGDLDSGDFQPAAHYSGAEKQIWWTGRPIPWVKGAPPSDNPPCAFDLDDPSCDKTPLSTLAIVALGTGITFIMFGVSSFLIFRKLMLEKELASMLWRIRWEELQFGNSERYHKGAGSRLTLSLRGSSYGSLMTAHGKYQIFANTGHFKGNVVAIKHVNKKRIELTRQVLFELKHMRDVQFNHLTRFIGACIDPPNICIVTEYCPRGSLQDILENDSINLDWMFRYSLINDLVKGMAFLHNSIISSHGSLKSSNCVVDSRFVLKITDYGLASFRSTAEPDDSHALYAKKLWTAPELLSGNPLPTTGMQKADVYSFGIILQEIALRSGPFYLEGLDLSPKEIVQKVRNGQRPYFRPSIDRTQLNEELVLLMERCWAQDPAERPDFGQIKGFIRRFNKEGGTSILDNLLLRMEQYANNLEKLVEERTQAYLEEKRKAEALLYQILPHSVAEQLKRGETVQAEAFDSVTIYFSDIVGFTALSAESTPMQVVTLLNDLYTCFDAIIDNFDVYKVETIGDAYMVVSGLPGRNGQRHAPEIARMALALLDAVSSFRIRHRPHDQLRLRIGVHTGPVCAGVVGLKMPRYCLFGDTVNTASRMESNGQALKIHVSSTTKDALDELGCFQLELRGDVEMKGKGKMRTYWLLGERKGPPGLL

H-SFSGFGSPLDRLSAGSVEHRGKQRKAVDHSKKR-OH [musclin]
binding to NPRA (NPRA): weak binding | binding to NPRB (NPRB): weak binding
